# Calls of active or inactive are those of the source. The calls are words filed in the database; no cut-off is given here.
# Experiments:
# [1] = target: T1, Leucine--tRNA ligase, cytoplasmic (Homo sapiens, UniProt Q9P2J5); experiment: Inhibition of LRS-dependent mTORC1 activation in HEK293 cells assessed as reduction in leucine-induced mTORC1-mediated S6 Kinase phosphorylation at 100 nM pretreated before leucine stimulation measured after 10 mins by immunoblot analysis; type: cell-based
# Target sequence in this assay (Q9P2J5 whole entry, looked up): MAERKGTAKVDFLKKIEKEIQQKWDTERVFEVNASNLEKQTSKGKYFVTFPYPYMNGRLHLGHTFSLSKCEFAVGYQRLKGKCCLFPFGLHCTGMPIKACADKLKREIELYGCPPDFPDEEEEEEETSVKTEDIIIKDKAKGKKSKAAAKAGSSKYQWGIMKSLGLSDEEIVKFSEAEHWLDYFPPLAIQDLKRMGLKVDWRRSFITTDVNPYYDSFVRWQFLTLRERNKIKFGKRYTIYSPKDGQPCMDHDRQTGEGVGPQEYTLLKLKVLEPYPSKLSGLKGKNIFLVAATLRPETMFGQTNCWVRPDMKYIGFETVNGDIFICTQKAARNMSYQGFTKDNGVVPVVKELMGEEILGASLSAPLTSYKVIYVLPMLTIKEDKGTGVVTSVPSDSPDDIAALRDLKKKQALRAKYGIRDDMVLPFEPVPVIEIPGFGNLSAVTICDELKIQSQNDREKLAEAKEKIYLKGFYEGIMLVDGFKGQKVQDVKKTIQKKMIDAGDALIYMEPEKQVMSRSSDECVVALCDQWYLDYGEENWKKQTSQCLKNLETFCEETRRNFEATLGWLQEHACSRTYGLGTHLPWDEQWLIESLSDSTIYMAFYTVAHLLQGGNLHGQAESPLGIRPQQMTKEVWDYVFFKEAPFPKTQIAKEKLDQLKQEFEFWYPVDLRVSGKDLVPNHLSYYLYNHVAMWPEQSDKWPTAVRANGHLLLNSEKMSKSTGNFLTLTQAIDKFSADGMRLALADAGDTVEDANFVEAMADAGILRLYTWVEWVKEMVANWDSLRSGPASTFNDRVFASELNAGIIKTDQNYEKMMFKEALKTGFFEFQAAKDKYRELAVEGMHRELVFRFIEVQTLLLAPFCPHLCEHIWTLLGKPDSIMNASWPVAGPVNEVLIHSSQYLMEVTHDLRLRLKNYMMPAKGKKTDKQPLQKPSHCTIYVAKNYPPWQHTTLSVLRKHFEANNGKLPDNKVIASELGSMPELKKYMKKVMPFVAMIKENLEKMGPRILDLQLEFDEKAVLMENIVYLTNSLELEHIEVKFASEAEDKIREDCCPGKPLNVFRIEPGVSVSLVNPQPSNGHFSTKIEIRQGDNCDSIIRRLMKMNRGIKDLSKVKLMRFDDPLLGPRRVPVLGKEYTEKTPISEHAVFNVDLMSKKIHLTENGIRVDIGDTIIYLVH
# [2] = target: T1, Leucine--tRNA ligase, cytoplasmic; experiment: Inhibition of LRS-dependent mTORC1 activation in HEK293 cells assessed as reduction in leucine-induced mTORC1-mediated S6 Kinase phosphorylation at 200 uM pretreated before leucine stimulation measured after 10 mins by immunoblot analysis; type: cell-based
# Target sequence in this assay (Q9P2J5 whole entry, looked up): as above
# MDA-MB-231 = experiment: Growth inhibition of human MDA-MB-231 cells incubated for 72 hrs by sulforhodamine B assay; type: functional, cell-based; conditions: MDA-MB-231, 72 h
# HCT-116 = experiment: Growth inhibition of human HCT116 cells incubated for 72 hrs by sulforhodamine B assay; type: functional, cell-based; conditions: HCT-116, 72 h
# K562 = experiment: Growth inhibition of human K562 cells incubated for 72 hrs by sulforhodamine B assay; type: functional, cell-based; conditions: K562, 72 h
# SNU-638 = experiment: Growth inhibition of human SNU638 cells incubated for 72 hrs by sulforhodamine B assay; type: functional, cell-based; conditions: SNU-638, 72 h
# A549 = experiment: Growth inhibition of human A549 cells incubated for 72 hrs by sulforhodamine B assay; type: functional, cell-based; conditions: A549, 72 h
# SK-HEP1 = experiment: Growth inhibition of human SKHEP1 cells incubated for 72 hrs by sulforhodamine B assay; type: functional, cell-based; conditions: SK-HEP1, 72 h
# MRC5 = experiment: Growth inhibition of human MRC5 cells incubated for 72 hrs by sulforhodamine B assay; type: cell-based; conditions: MRC5, 72 h
# [3] = target: T1, Leucine--tRNA ligase, cytoplasmic; experiment: Inhibition of LRS-dependent mTORC1 activation in HEK293 cells assessed as reduction in leucine-induced mTORC1-mediated S6 Kinase phosphorylation at 20 to 200 uM pretreated before leucine stimulation measured after 10 mins by immunoblot analysis; type: cell-based
# Target sequence in this assay (Q9P2J5 whole entry, looked up): as above
# [4] = target: T1, Leucine--tRNA ligase, cytoplasmic; experiment: Inhibition of LRS canonical enzyme activity in HEK293 cells assessed as effect on enzyme-mediated aminoleucylation; type: cell-based
# Target sequence in this assay (Q9P2J5 whole entry): as the sequence (Q9P2J5 whole entry, looked up) above
# [5] = target: T1, Leucine--tRNA ligase, cytoplasmic; experiment: Inhibition of LRS-dependent mTORC1 activation in HEK293 cells assessed as reduction in leucine-induced mTORC1-mediated S6 Kinase phosphorylation pretreated before leucine stimulation measured after 10 mins by immunoblot analysis; type: cell-based
inhibition of S6K phosphorylation (qualitative) [2],IC50 (MDA-MB-231) [µM],IC50 (HCT-116) [µM],IC50 (K562) [µM],IC50 (SNU-638) [µM],IC50 (A549) [µM],IC50 (SK-HEP1) [µM],SMILES,IC50 (MRC5) [µM],also measured
Active,–,–,–,–,–,–,COc1ccc(CNS(=O)(=O)c2ccc(NC(=O)[C@@H](O)CC(C)C)cc2)cc1OC,–,–
Active,–,–,–,–,–,–,COc1ccc(CNS(=O)(=O)c2ccc(NC(=O)[C@@H](O)[C@H](O)C(C)C)cc2)cc1OC,–,–

# The next lines start with the molecule.
SMILES,inhibition of S6K phosphorylation (qualitative) [2],IC50 (MDA-MB-231) [µM],IC50 (HCT-116) [µM],IC50 (K562) [µM],IC50 (SNU-638) [µM],IC50 (A549) [µM],IC50 (SK-HEP1) [µM],IC50 (MRC5) [µM],also measured
CO[C@H]1C[C@@H]2CC[C@@H](C)[C@@](O)(O2)C(=O)C(=O)N2CCCC[C@H]2C(=O)O[C@H]([C@H](C)C[C@@H]2CC[C@@H](O)[C@H](OC)C2)CC(=O)[C@H](C)/C=C(\C)[C@@H](O)[C@@H](OC)C(=O)[C@H](C)C[C@H](C)/C=C/C=C/C=C/1C,–,–,–,–,–,–,–,–,inhibition [1]: Active
CC(C)C[C@H](O)C(=O)NS(=O)(=O)OC[C@H]1O[C@@H](n2cnc3c(N)nc(I)nc32)[C@H](O)[C@@H]1O,Active,–,–,–,–,–,–,–,–
COc1cc([C@@H]2c3cc4c(cc3[C@@H](O[C@@H]3O[C@@H]5CO[C@@H](C)O[C@H]5[C@H](O)[C@H]3O)[C@H]3COC(=O)[C@H]23)OCO4)cc(OC)c1O [ETOPOSIDE],–,1.53,1.06,0.76,1.05,0.3,0.63,11.7,–
COc1ccc(CNS(=O)(=O)c2ccc(N3C[C@H](CC(C)C)NC3=O)cc2)cc1OC,–,–,–,–,–,–,–,–,inhibition [3]: inactive
COc1ccc(CNS(=O)(=O)c2ccc(N3C(=O)N[C@@H](CC(C)C)C3=O)cc2)cc1OC,–,5.65,4.28,2.86,5.22,5.54,2.44,> 20,IC50 [4]: > 800 µM; IC50 [5]: 26.4 µM; inhibition [5]: Dose-dependent effect
COc1ccc(CNS(=O)(=O)c2ccc(NC(=O)[C@@H](N)CC(C)C)cc2)cc1OC,Active,5.44,3.96,4.48,6.26,5.29,3.07,> 20,IC50 [4]: > 800 µM; IC50 [5]: 44.9 µM; inhibition [5]: Dose-dependent effect

# — ChEMBL document CHEMBL4052681, “Discovery of simplified leucyladenylate sulfamates as novel leucyl-tRNA synthetase (LRS)-targeted mammalian target of rapamycin complex 1 (mTORC1) inhibitors” (Bioorg Med Chem, 2017)
